Results from patent US20140364454A1, “METAL-CHELATING COMPOUNDS HAVING AT LEAST ONE POLYAMINO CHAIN” (UNIVERSITE DE RENNES I, priority 2011, published 2014).
Read-outs that look alike come from different tables or passages of the source.

How the values were obtained:
[1] = Potentiometry: stability constants and pFe3+ of the iron complex; assay type: physicochemical; details: pH 7.4
Method: The complexation affinity of Quilamine with the metal ion in the organism reflects the chelating capacity or chelating power of Quilamine. This affinity can be assessed by measuring the value of pW corresponding to −log of the concentration in free metal ion W, i.e. non-complexated by the Quilamine for a ratio of respective concentrations of Quilamine (10 micromoles per liter) and metal ion (1 micromole per liter) equal to 10, at 25° C. and pH 7.4. The higher the value of pW, the greater the affinity of Quilamine with metal ion. The affinity of Quilamine with iron in its ferric form (Fe(III)) and its ferrous form (Fe(II)) is measured respectively by pFe^3+ and pFe^2+ at physiological pH (pH=7.4), at 25° C.
Potentiometry measurements were made in thermostated titration cells at 25±0.1° C., using a Metrohm 702 SM Titrino titrator connected to a Metrohm 6.0233.100. The ligand solution is prepared in a concentration of ˜1.5×10^−3 moles per liter, the solution of Fe^3+ is made from FeCl3 and titrated by complexation with a standard solution of EDTA (ethylenediaminetetracetic acid). The sample for the measurement contained approximately 0.03 millimoles per liter of ligand in a volume of 30 ml where the ionic strength is maintained at 0.1 mole per liter in using KNO3 as a support electrolyte. During the titrations, Fe^3+ is added to 0.45 or 0.9 equivalents of ligand. Each titration consists of 150-200 equilibrium points with pH varying from 2.0 to 11.5, and is repeated at least twice. The thermodynamic constants are computed with the software […] and the speciation diagram of the species is done by the Hyss program.

[2] = Calcein test: shift of iron(III) complexated with calcein; assay type: physicochemical; details: pH 7.4
Method: The Quilamines HQ1-34, HQ1-344, HQ1-343, HQ1-33, HQ1-333, HQ1-44, HQ1-43, HQ1-444, HQ1-443 according to the invention were synthesized and tested. For each Quilamine, its capacity to shift iron (III) complexated with calcein was tested. Calcein is a fluorescent molecule which has a pFe3+ value of 20.3 with pH 7.4 close to the value measured for ligands of low molecular weight present in human or animal cells and complexating the labile iron pool, such as citrate which has a pFe^3+ value of 19.3 with pH of 7.4 (LIP). The fluorescence of calcein is detected on a microplate, in a concentration of 0.1 micromole per liter, in solution in a HEPES buffer (4-(2-hydroxyethyl)-1-piperazine ethane sulfonic acid) with pH 7.4, in a Fusion (Packard) type a microplate fluorescence reader, under excitation at 450 nanometers and analysis of the fluorescence emission at 515 nanometers. The fluorescence of calcein is extinguished in the presence of iron(III) in the form of hydrochloride (chloride) with a concentration of 1 micromole per liter. The addition of Quilamine in different concentrations ranging from 0.01 to 40 micromoles per liter prompts the shifting of iron(III) complexated with calcein towards Quilamine, resulting in a restoration of the fluorescence of the calcein. The dose-effect curves expressing the percentage of restoration of fluorescence of calcein (relative to the fluorescence of the free molecule in the absence of iron), for each Quilamine concentration, makes it possible to deduce the Quilamine concentration prompting the 50% shift of Fe(III) from calcein and the restoration of its associated fluorescence (CE50). These concentration values CE50 are inversely proportional to the chelating capacity of the chelators and the aptitude to mobilize iron from the LIP of the organism.
Comparatively, measurements were made, under the same conditions, of the efficacy in shifting iron(III) complexated with calcein of the two prior-art chelators, 8-hydroxyquinoline and O-trensox, the latter being currently considered to be the chelator having the greatest affinity for iron.

Caco-2 cells [3] = assay: LDH release of Caco-2 cells; assay type: cell-based, human; details: for % LDH/control 10 μM: Caco-2 J4, 10 μM; for % LDH/control 100 μM: Caco-2 J4, 100 μM
Method: (§1) The action of Quilamines on the cell viability was analyzed on enterocyte cells of the Caco-2 tumor cell line derived from human colon carcinoma and compared with the action of ICL670 in the presence or absence of exogenous iron, after activation (DFMO) or competitive inhibition by spermidine, of the PTS. The operating conditions used are identical to those used for CHO/CHO-MG and HepG2 cells.
As in the case of the other cell lines in proliferative phase presented here above, the dose-effect curves of the action of the Quilamines on the number of viable cells (number of nuclei) are biphase curves with a cytostatic constituent for concentration values of below 30 micromoles per liter and a cytotoxic constituent with release of LDH for concentration values above 30 micromoles per liter. Only this second cytotoxic constituent is observed when the cells of the Caco-2 cell line are treated after confluence (stopping of the proliferation).

Caco-2 cells [4] = assay: Cell viability of proliferating Caco-2 cells (number of nuclei); assay type: cell-based, human; details: for IC50: no exogenous iron; for Constituent 1 (1-10 μM) % cell / Constituent 2 (10-100 μM) % cell: Caco-2 J4, no exogenous iron
Method: as §1
The results for the measurement of the anti-proliferative effect of Quilamines, and of ICL670 on the proliferating cells (cytostatic constituent) when there is no exogenous iron have been listed in the table 4 below.

[5] = tested on: wild cell line (CHO) of hamster ovarian cells; assay: Anti-proliferative effect on CHO cells, counting of cell nuclei (Hoechst 33342); assay type: cell-based; details: 72 h treatment, no exogenous iron; read-out: IC50 CHO
Method: The in vitro efficacy of different Quilamines was tested on a wild cell line (CHO) of hamster ovarian cells having PTS and a mutant cell line CHO-MG without PTS. The two cell types CHO and CHO-MG were treated, 24 hours after being seeded in 96-well microplates, by concentrations of different Quilamines ranging from 0.1 to 400 micromoles per liter. The cytostatic (anti-proliferative) effects and cytotoxic effects of Quilamine after 72 hours' treatment of the cells were assessed respectively by counting cell nuclei after DNA marking by the Hoechst 33342 fluorescent intercalant dye and by analysis of membrane damage detected by the dosing of the lactate dehydrogenase activity (LHD) in the supernatants.
The IC50 inhibitor concentration corresponding to the concentration in Quilamines enables the inhibition at 50% of the cell proliferation was deduced from the dose-effect curves of numeration of the nuclei of the living cells on the CHO and CHO-MG cell lines. […] The lower the value of IC50, the greater the efficiency of the anti-proliferative effect of the tested chelators.
A comparison was made of the cytostatic or anti-proliferative action and the cytotoxic action for 72 h of treatment by Quilamine HQ1-44 and 8-hydroxyquinoline and ICL670, on the CHO cell lines in the presence and without the presence of exogenous iron, in the form of Fe(III) citrate in a concentration of 20 micromoles per liter. The results obtained are shown in FIG. 4, FIG. 4A relating to the results on cell viability and FIG. 4B relating to the results on cell toxicity.

[6] = tested on: mutant cell line CHO-MG without PTS; assay: Anti-proliferative effect on CHO-MG cells without PTS, counting of cell nuclei; assay type: cell-based, hamster; details: for IC50: 72 h treatment; for Ratio IC50 (CHO-MG/CHO): selectivity of recognition by the PTS
Text: The IC50 inhibitor concentration corresponding to the concentration in Quilamines enables the inhibition at 50% of the cell proliferation was deduced from the dose-effect curves of numeration of the nuclei of the living cells on the CHO and CHO-MG cell lines. These dose-effect curves are sometimes bi-phase curves as in the case of Quilamine HQ1-44 which has an anti-proliferative constituent (without concomitant release of LDH in supernatant) in the range of concentrations of 0.4 to 3 micromoles per liter and a second cytotoxic constituent accompanied by membrane toxicity expressed by the release of LDH for concentrations of over […]. The lower the value of IC50, the greater the efficiency of the anti-proliferative effect of the tested chelators.
Furthermore, the ratio of the IC50 inhibitor concentrations found for the CHO-MG and the CHO cell lines (Ratio IC50 (CHO-MG/CHO)) was computed for several Quilamines according to the invention. This ratio makes it possible to estimate the selectivity of recognition of the different chelators by the PTS: the higher the ratio, the more clearly is the chelator recognized by the PTS. When this ratio is close to 1, the tested chelator is not recognized or is little recognized by the PTS.

HepG2 cells = assay: Anti-proliferative effect on HepG2 cells (nuclei count or SDH activity); assay type: cell-based, human; details: 72 h; for IC50: HepG2, absence of exogenous iron, read-out: IC50 associated with the cytostatic effect; for % of HepG2 cells concerned by the anti-proliferative effect: absence of exogenous iron
Text: The majority of the Quilamines, like ICL670, show biphase dose-effect curves in the absence of exogenous iron, with an anti-proliferative constituent for concentration values of 1 to 10 micromoles per liter and a cytotoxic constituent associated with a release of LDH for concentration values of over 10 micromoles per liter. The percentage of HepG2 cells concerned by the anti-proliferative effect and the values of IC50 associated with this cytostatic effect in the absence of exogenous iron were listed in the table 4 below.
The implication of PTS in the cytostatic and cytotoxic action of Quilamines was analyzed in proliferating HepG2 hepatocyte tumor cells after activation of PTS or competitive inhibition of PTS by spermidine, a polyamine naturally present in the organism and most efficaciously captured by the PTS. The conditions of treatment by Quilamines are identical to those described in paragraph III-1.
Inhibiting ornithine decarboxylase (ODC), the key enzyme in the biosynthesis of polyamines, causes a depletion of intra-cell polyamines and an activation of PTS which enables the deficiency to be met. This activation of PTS is done by means of the ODC inhibitor, alpha-difluoromethyl ornithine (DFMO).
The competitive inhibition of PTS by spermidine is prompted by the co-treatment of the cells by the Quilamines in the presence of spermidine, in a concentration of 50 micromoles per liter.

[7] = Caco-2 J4, cytostatic constituent, read-out: Constituent 1 (1-10 μM) IC50
[8] = Caco-2 J4, cytotoxic constituent, read-out: Constituent 2 (10-100 μM) IC50

Structure (SMILES) | pFe3+ [1] | chelating capacity of HQ1-3 type compared with HQ1-4 type Quilamines [2] | % LDH/control 10 μM (Caco-2 cells [3]) | % LDH/control 100 μM (Caco-2 cells [3]) | IC50 (Caco-2 cells [4]; [7]) | IC50 (Caco-2 cells [4]; [8]) | Constituent 1 (1-10 μM) % cell (Caco-2 cells [4]) | Constituent 2 (10-100 μM) % cell (Caco-2 cells [4]) | IC50 [5] | IC50 [6] | Ratio IC50 (CHO-MG/CHO) [6] | IC50 (HepG2 cells) | % of HepG2 cells concerned by the anti-proliferative effect (HepG2 cells)
O=C(NCCN(CCNC(=O)c1cc(S(=O)(=O)O)c2cccnc2c1O)CCNC(=O)c1cc(S(=O)(=O)O)c2cccnc2c1O)c1cc(S(=O)(=O)O)c2cccnc2c1O [o-Trensox, reference compound] | 29.5 | – | – | – | – | – | – | – | – | – | – | – | –
NCCCNCCCNCc1ccc2cccc(O)c2n1 [HQ1-33] | – | better chelating capacity | 118% | 261% | 0.8 µM | 37 µM | 40% | 60% | 5.7 µM | 118 µM | 21 | 1.5 µM | 10%
NCCCNCCCNCCCNCc1ccc2cccc(O)c2n1 [HQ1-333] | – | better chelating capacity | 112% | 169% | 3 µM | 60 µM | 20% | 80% | 15.1 µM | 277 µM | 18 | 1 µM | 12.5%
NCCCCNCCCCNCCCCNCc1ccc2cccc(O)c2n1 [HQ1-444] | – | – | 99% | 118% | 2 µM | 75 µM | 60% | 40% | 6.3 µM | 240 µM | 38 | 4.75 µM | 10%
NCCCNCCCCNCc1ccc2cccc(O)c2n1 [HQ1-43] | – | – | 93% | 240% | 1 µM | 30 µM | 7% | 93% | – | – | – | 1.75 µM | 10%
